# Results from patent US20100210597A1, “C21-Deoxy Ansamycin Derivatives as Antitumor Agents” (priority 2007, published 2010).
# Like-named read-outs stand apart in the source and are kept apart here.
# Experiments:
# [1] = system: LXF 1121L; test: Monolayer proliferation assay (modified propidium iodide), LXF 1121L; type: cell-based, human; conditions: average of 2 experiments
# Description: (§1) In vitro evaluation of compounds for anticancer activity in a panel of human tumour cell lines in a monolayer proliferation assay was carried out at the Oncotest Testing Facility, Institute for Experimental Oncology, Oncotest GmbH, Freiburg.
# (§2) The Oncotest cell lines are established from human tumor xenografts as described by Roth et al., (1999). The origin of the donor xenografts is described by Fiebig et al., (1999). Other cell lines are either obtained from the NCl (DU145, MCF-7) or purchased from DSMZ, Braunschweig, Germany.
# (§3) All cell lines, unless otherwise specified, are grown at 37° C. in a humidified atmosphere (95% air, 5% CO2) in a ‘ready-mix’ medium containing RPMI 1640 medium, 10% fetal calf serum, and 0.1 mg/mL gentamicin (PAA, Cölbe, Germany).
# (§4) A modified propidium iodide assay was used to assess the effects of the test compound(s) on the growth of six human tumour cell lines (Dengler et al., (1995)).
# (§5) Briefly, cells are harvested from exponential phase cultures by trypsinization, counted and plated in 96 well flat-bottomed microtitre plates at a cell density dependent on the cell line (5-10.000 viable cells/well). After 24 h recovery to allow the cells to resume exponential growth, 0.010 mL of culture medium (6 control wells per plate) or culture medium containing macbecin were added to the wells. Each concentration is plated in triplicate. Compounds were applied in two concentrations (0.001 mM and 0.01 mM). Following 4 days of continuous exposure, cell culture medium with or without test compound was replaced by 0.2 mL of an aqueous propidium iodide (P1) solution (7 mg/L). To measure the proportion of living cells, cells were permeabilized by freezing the plates. After thawing the plates, fluorescence was measured using the Cytofluor 4000 microplate reader (excitation 530 nm, emission 620 nm), giving a direct relationship to the total number of viable cells.
# (§6) Growth inhibition is expressed as treated/control×100 (% T/C).
# (§7) In vitro evaluation of the test compound, 20, for anticancer activity in a panel of human tumour cell lines in a monolayer proliferation assay was carried out as described in the general methods using a modified propidium iodide assay.
# [2] = Whole blood cleavage assay, human blood; type: in vitro ADME; conditions: 10 uM, 37° C., two hours
# Description: Human whole blood (single donor, batch HBE4534) was obtained from First Link UK Ltd. Mouse whole blood (pool of 10, batch 07-2470) was obtained from Harlan UK. Blood was collected into tubes containing EDTA as anticoagulant and shipped on ice. Blood was used on the day of arrival. In the case of human whole blood incubations were undertaken both on the fresh blood and also after freezing the blood followed by thawing. Control compounds were Lidocaine, Bisacodyl and Simvastatin.
# All test compounds were incubated at 10 uM in whole blood at 37° C. At selected time points, 0.1 ml of blood was mixed with 0.3 ml of acetonitrile and vortexed immediately. All samples were centrifuged and supernatant were diluted with same volume of deionized water. […] For 20 sample analysis, mass spectrometry monitored both 17 and 20. […]
# The Half life, for the disappearance of 20, was determined according to the relationship: […]
# Blood cleavage assays were run to confirm that 20 acts as a prodrug and cleaves to produce compound 17 when incubated with human and mouse blood, as described in the general methods. The compound was incubated in human or mouse blood with samples removed over two hours, and analysed by LC MS/MS for presence of 20 and 17 (see FIG. 6). […] Due to the differing responses of 17 and 20 on mass spectrometry it was not possible to quantify the extent of conversion of 20 to 17.
# [3] = system: Caco-2 cells; test: In vitro Caco-2 assay for cell permeability; type: in vitro ADME; conditions: 10 uM, 2 hour incubation
# Description: (§8) Caco-2 cells (ATCC Cat. # HTB-37) were grown on fibrillar collagen-coated, microporous, polycarbonate membranes in 24-well BioCaot™ insert plates. Following 5-day growth in Eagle's minimum essential medium supplemented with 10% FBS, the cells were exposed to BioCoat Enterocyte Differentiation Medium (BD, Cat. # 05496) for 2 days to induce enterocytic differentiation. Prior to dosing, the transepithelial electric resistance (TEER) of the Caco-2 cells in each well was measured to ensure the quality of the monolayers.
# (§9) The stock solutions of test compounds were prepared at 3 mM in DMSO. Dosing solutions were prepared in the permeability assay buffer at 10 μm. The permeability assay buffer was Hank's balanced salt solution containing 10 mM HEPES at a pH of 7.4±0.2.
# (§10) The Caco-2 cells were dosed with the test compounds on either apical side (for A-to-B permeation) or basolateral side (for B-to-A permeation) and incubated at 37° C. with 5% CO2 and 90% relative humidity. The testing for each compound was performed in duplicate. After 2 hour incubation, a 20-μL sample was taken from each of dosing solutions and both donor and receiver compartments. To ensure the validity of the Caco-2 assay, propranolol and vinblastine were used as a high- and a low- to medium-permeability positive control, respectively. Vinblastine also served as a P-gp substrate, tested in conjunction with a P-gp inhibitor, verapamil.
# (§11) To quantify test compounds by LC/MS/MS, a related geldanamycin-like compound, 17-methoxyethylamino geldanamycin (Schnur et al., 1995), was used as the internal standard. The calculation of permeability of each compound involved only the concentration ratio of the same test compound, the concentration ratio was expressed in the peak area ratio of the test compound to the internal standard. The peak area ratio of each compound was derived by LC-MS/MS.
# (§12) The apparent permeability coefficient Papp was calculated as below: […]
# (§13) dCr: cumulative concentration in the receiver compartment in M. dt: duration of the assay (i.e., 7200 seconds). Vr: volume of the receiver compartment in cm^3. A: area of the cell monolayer (0.31 cm^2 for 24-well BioCoat™ plate). C0: concentration of the dosing solution in M.
# (§14) The in vitro permeability of 20 and the parent 17 were assayed using caco-2 cells, as described in the general methods. All compounds were analysed at a concentration of 10 uM.
# [4] = In vitro Caco-2 assay for cell permeability; type: in vitro ADME; conditions: human, Caco-2, pH 7.4, 10 uM, 2 hour incubation
# Description: as §8, §9, §10, §11, §12, §13, §14
# [5] = system: MCF-7; test: Monolayer proliferation assay (modified propidium iodide), MCF-7; type: cell-based, human; conditions: average of 2 experiments
# Description: as §1, §2, §3, §4, §5, §6, §7
compound,measurement,setting,value
"CO[C@H]1C[C@H](C)Cc2cc(cc(OP(=O)(O)O)c2)NC(=O)/C(C)=C/CC[C@H](C)[C@@H](OC(N)=O)/C(C)=C/[C@H](C)[C@H]1O [Compound 20, 4,5-dihydro-11-O-demethyl-15-demethoxy-18,21-didehydro-21-deoxomacbecin-18-phosphate]",Test/Control (%) at drug concentration (μg/mL),[1]; 0.01 μg/mL,103%
same,Test/Control (%) at drug concentration (μg/mL),[1]; 0.1 μg/mL,58%
same,Test/Control (%) at drug concentration (μg/mL),[1]; 1 μg/mL,15%
same,Test/Control (%) at drug concentration (μg/mL),[1]; 10 μg/mL,14%
same,Test/Control (%) at drug concentration (μg/mL),[1]; 100 μg/mL,5%
same,conversion in blood,[2],act as a prodrug and release 17
same,Efflux Limited,[3],No
same,"efflux ratio at 2 h, 10 uM",[4]; read-out: Efflux ratio Papp(B → A)/Papp(A → B),0.7
same,"Papp A→B at 2 h, 10 uM",[4]; read-out: Permeability Apical to Basolateral Papp(A → B) Mean,0.49 ×10⁻⁶ cm/s
same,"Papp A→B at 2 h, 10 uM",[4]; read-out: Permeability Apical to Basolateral Papp(A → B) Rep. 1,0.67 ×10⁻⁶ cm/s
same,"Papp A→B at 2 h, 10 uM",[4]; read-out: Permeability Apical to Basolateral Papp(A → B) Rep. 2,0.31 ×10⁻⁶ cm/s
same,"Papp B→A at 2 h, 10 uM",[4]; read-out: Permeability Basolateral to Apical Papp(B → A) Mean,0.35 ×10⁻⁶ cm/s
same,"Papp B→A at 2 h, 10 uM",[4]; read-out: Permeability Basolateral to Apical Papp(B → A) Rep. 1,0.22 ×10⁻⁶ cm/s
same,"Papp B→A at 2 h, 10 uM",[4]; read-out: Permeability Basolateral to Apical Papp(B → A) Rep. 2,0.48 ×10⁻⁶ cm/s
same,Test/Control (%) at drug concentration (μg/mL),"[5]; MCF-7, 0.01 μg/mL",98%
same,Test/Control (%) at drug concentration (μg/mL),"[5]; MCF-7, 0.1 μg/mL",38%
same,Test/Control (%) at drug concentration (μg/mL),"[5]; MCF-7, 1 μg/mL",14%
same,Test/Control (%) at drug concentration (μg/mL),"[5]; MCF-7, 10 μg/mL",13%
same,Test/Control (%) at drug concentration (μg/mL),"[5]; MCF-7, 100 μg/mL",9%
